Data taken from patent US20230002505A1, “TREATMENT OF THERAPY-RESISTANT HER-2 POSITIVE BREAST CANCER” (OREGON HEALTH & SCIENCE UNIVERSITY, priority 2017, published 2023).

Assays:
Format in all cases: cell-based, human
HCC-1954 cells = assay: In vitro proliferation of parental HCC-1954 cells after panitumumab treatment; details: parental HCC-1954, HER-2 positive, trastuzumab and lapatinib resistant; blocking HER-1 function
21MT1 cells = assay: In vitro proliferation of parental 21MT1 cells after panitumumab treatment; details: parental 21MT1, HER-2 positive, trastuzumab and lapatinib resistant; blocking HER-1 function
JimT1 cells = assay: In vitro proliferation of parental JimT1 cells after panitumumab treatment; details: parental JimT1, HER-2 positive, trastuzumab and lapatinib resistant; blocking HER-1 function

Measured: proliferation in vitro

Panitumumab
decreased proliferation: HCC-1954 cells | 21MT1 cells | JimT1 cells
